Measured values taken from US20180168208A1 (priority 2014, published 2018).
Where “and” joins values, the source holds several entries; their conditions need not be identical. Equal entries are not always repeated. Structures can show the parent of a compound that is named as a salt. Where two headings read alike, the source gives them in different places.

Tests used:
T1R1/T1R3 receptor [1] = biological target: T1, T1R1/T1R3 receptor (Felis catus, UniProt E3UMS2); assay: Example 6: activation of T1R1/T1R3 by transmembrane compounds, conducted as in Example 5; type: cell-based
Description: HEK293 cells that stably express T1R3 and inducibly express T1R1 were exposed to transmembrane compounds alone or in combination with one or more amino acids and/or one or more nucleotides to activate the umami receptor. Activation of the T1R1/T1R3 receptor was detected by a change in intracellular calcium levels using a calcium sensitive fluorescent dye. Cells that express T1R3 but not T1R1 were used as a control. A FLIPR® Tetra or a FlexStation® 3 was used for data capture.
In each experiment, serial dilutions of up to 10 mM of the transmembrane compound were added to the T1R1/T1R3-expressing cells.

T1R1/T1R3 receptor [2] = biological target: T1, T1R1/T1R3 receptor; assay: cell-based; details: for Max resp % of Ala, +IMP (0.2 mM): relative to alanine; for Thres (mM), +IMP (0.2 mM): threshold concentration in the presence of 0.2 mM IMP
Outline: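 HEK293 cells stably expressing T1R3 with inducible T1R1 were given transmembrane compounds in serial dilutions up to 10 mM, alone or with amino acids and/or nucleotides. Receptor activation was read as an intracellular calcium change with a calcium-sensitive fluorescent dye; T1R3-only cells served as control.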

cat T1R1/T1R3 receptor [3] = biological target: T2, cat T1R1/T1R3 receptor (Felis catus, UniProt A0ABI7Z2I4); assay: cell-based
T2 sequence (A0ABI7Z2I4 171-420): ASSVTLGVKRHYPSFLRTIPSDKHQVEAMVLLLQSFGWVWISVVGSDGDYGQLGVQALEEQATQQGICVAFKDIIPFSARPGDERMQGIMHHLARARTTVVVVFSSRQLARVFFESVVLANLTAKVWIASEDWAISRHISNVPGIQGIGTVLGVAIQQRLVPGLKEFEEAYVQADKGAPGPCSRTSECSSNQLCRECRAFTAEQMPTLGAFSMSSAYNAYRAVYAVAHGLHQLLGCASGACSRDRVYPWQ
T2 sequence (Q49KI5 25-865 E206Q/N523D/F654L partner): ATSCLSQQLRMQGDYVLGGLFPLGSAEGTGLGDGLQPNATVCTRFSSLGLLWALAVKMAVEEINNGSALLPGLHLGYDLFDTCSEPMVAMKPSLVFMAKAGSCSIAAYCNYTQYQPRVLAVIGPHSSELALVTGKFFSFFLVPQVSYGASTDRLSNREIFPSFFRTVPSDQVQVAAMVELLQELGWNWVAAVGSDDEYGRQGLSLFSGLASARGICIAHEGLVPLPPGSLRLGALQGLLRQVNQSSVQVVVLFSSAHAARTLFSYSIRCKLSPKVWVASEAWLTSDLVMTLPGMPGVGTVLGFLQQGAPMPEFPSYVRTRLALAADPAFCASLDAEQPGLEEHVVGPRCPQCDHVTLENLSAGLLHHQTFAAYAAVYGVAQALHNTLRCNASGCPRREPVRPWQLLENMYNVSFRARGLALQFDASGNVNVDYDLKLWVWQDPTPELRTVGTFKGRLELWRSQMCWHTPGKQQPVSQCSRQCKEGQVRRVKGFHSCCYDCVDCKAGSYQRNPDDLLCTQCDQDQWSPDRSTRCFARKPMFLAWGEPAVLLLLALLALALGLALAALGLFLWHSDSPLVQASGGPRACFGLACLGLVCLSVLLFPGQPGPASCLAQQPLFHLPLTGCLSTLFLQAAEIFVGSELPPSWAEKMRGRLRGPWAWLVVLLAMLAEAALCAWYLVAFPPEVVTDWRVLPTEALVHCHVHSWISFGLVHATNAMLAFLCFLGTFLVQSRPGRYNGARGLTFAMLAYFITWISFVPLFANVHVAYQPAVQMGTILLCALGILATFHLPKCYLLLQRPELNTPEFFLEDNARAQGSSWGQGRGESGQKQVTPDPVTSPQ
Outline: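 HEK293 cells stably expressing T1R3 with inducible T1R1, treated with nucleotide derivatives alone or combined with amino acids and/or nucleotides. Activation read as intracellular calcium change by calcium-sensitive fluorescent dye and/or luminescent reporter. Cells expressing T1R3 without T1R1 served as control.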

cat T1R1/T1R3 receptor [4] = biological target: T2, cat T1R1/T1R3 receptor; assay: cell-based; remark: listed apart in the source
Procedure: […] Activation of the T1R1/T1R3 receptor was detected by a change in intracellular calcium levels using a calcium sensitive fluorescent dye. Cells that express T1R3 but not T1R1 were used as a control. A FLIPR® Tetra or a FlexStation® 3 was used for data capture.
In each experiment, serial dilutions of up to 0.1 mM, 1 mM or 10 mM of the nucleotide derivative were added to the T1R1/T1R3-expressing cells.

T1R1/T1R3 receptor [5] = biological target: T1, T1R1/T1R3 receptor; assay: cell-based; type: cell-based
Outline: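 HEK293 cells stably expressing T1R3 with inducible T1R1 received serial dilutions of compound (up to 10 mM), alone or with amino acids and/or nucleotides. Activation was read as an intracellular calcium change with a calcium-sensitive fluorescent dye. Cells expressing T1R3 without T1R1 served as control.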

T1R1/T1R3 receptor [6] = biological target: T1, T1R1/T1R3 receptor; assay: Example 8: agonist screening of transmembrane compounds on T1R1/T1R3 in HEK293 cells; type: cell-based, cat; details: transmembrane compound alone
Procedure: (§1) HEK293 cells that stably express T1R3 and inducibly express T1R1 were exposed to a transmembrane compound. Activation of the T1R1/T1R3 receptor was detected by a change in intracellular calcium levels using a calcium sensitive fluorescent dye and/or a luminescent reporter system. […] A FLIPR® Tetra or a FlexStation® 3 was used for data capture.
Each transmembrane compound was tested at concentrations of 0.01 mM, 0.1 mM, and 1 mM. […] To generate the dose response curves, the transmembrane compound was tested at concentrations of between 0.0001 mM and 1.0 mM in the presence of GMP and Ala.
Target sequence in this assay (E3UMS2 entry or part of it, one chain of several): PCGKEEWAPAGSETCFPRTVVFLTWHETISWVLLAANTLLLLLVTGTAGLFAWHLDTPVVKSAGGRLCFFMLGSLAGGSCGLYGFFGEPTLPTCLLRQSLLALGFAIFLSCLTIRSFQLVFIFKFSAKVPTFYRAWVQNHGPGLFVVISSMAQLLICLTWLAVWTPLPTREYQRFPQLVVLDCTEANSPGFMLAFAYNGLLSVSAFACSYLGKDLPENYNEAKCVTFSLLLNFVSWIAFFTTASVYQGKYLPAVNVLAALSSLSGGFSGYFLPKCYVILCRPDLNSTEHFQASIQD

T1R1/T1R3 receptor [7] = biological target: T1, T1R1/T1R3 receptor; assay: Example 8: PAM screening of transmembrane compounds with GMP and Ala on T1R1/T1R3 in HEK293 cells; type: cell-based, cat; details: in the presence of GMP and Alanine
Description: as §1, with “to” for “to a”, “compound alone or in combination with Ala and GMP to activate the umami receptor.” for “compound.”
Target sequence in this assay (E3UMS2 entry or part of it, one chain of several): as above
Dose response curves were generated for each transmembrane compound at concentrations of 0 (buffer only), 0.01, 0.1 and 1 mM, wherein each of the three concentrations of transmembrane compound was tested in combination with 0.03 mM GMP+100 mM Ala (T1); 0.6 mM GMP+10 mM Ala (T2); 0.1 mM GMP+60 mM Ala (T3) and 0.3 mM GMP+60 mM Ala (T4). The T4 mixture was also tested in a 2-fold dilution series (the T4(×) Concentration). In these experiments, the first test concentration was 2× (2 times) the T4 concentration. The subsequent test concentrations were 2-fold dilutions from that (1×, 0.5×etc.). This dilution series was tested with or without the addition of the test compound at a constant 0.3 mM concentration.
Activation of the umami receptor was also determined in the presence of 1 mM GMP+100 mM Ala to generate a “maximum” umami receptor activation level.

[8] = T1R1/T1R3 EC50 +0.2 mM IMP, +0.2 mM IMP
[9] = alone in buffer, read-out: T1R1/T1R3 EC50 alone in buffer
[10] = EC50 (mM), +Alanine (20 mM) + IMP (0.2 mM), in the presence of 20 mM alanine and 0.2 mM IMP
[11] = EC50 (mM), +IMP (0.2 mM), in the presence of 0.2 mM IMP
[12] = T1R1/T1R3 EC50 +20 mM L-alanine + 0.2 mM IMP, +20 mM L-alanine + 0.2 mM IMP
[13] = compound alone in buffer, read-out: EC50 (mM), +buffer (alone)

SMILES: Nc1ccccc1C(=O)NCCc1ccccc1 [2-amino-N-phenethylbenzamide]
- EC50 (T1R1/T1R3 receptor [1]): 480 ± 10 µM
- EC50 (T1R1/T1R3 receptor [1]; [8]): 140 ± 30 µM
- EC50 (T1R1/T1R3 receptor [1]; [9]): 420 ± 10 µM
- Max resp % of IMP, +Alanine (20 mM) (T1R1/T1R3 receptor [2]): 93.4%
- Thres (mM), +Alanine (20 mM) (T1R1/T1R3 receptor [2]): 0.3 mM
- EC50 (T1R1/T1R3 receptor [2]; [10]): 0.09 mM
- EC50 (T1R1/T1R3 receptor [2]; EC50 (mM), +Alanine (20 mM), in the presence of 20 mM alanine): 0.48 mM
- EC50 (T1R1/T1R3 receptor [2]; [11]): 0.14 mM
- EC50 (T1R1/T1R3 receptor [2]; [8]): 0.14 ± 0.02 mM
- EC50 (T1R1/T1R3 receptor [2]; [12]): 0.09 ± 0.01 mM
- EC50 (T1R1/T1R3 receptor [2]; T1R1/T1R3 EC50 +20 mM L-alanine, +20 mM L-alanine): 0.48 ± 0.01 mM
- EC50 (T1R1/T1R3 receptor [2]; [9]): 0.42 ± 0.01 mM
- EC50 (T1R1/T1R3 receptor [2]; [13]): 0.42 mM
- Max resp % of Ala, +IMP (0.2 mM) (T1R1/T1R3 receptor [2]; in the presence of 0.2 mM IMP): 194.5%
- Thres (mM), +IMP (0.2 mM) (T1R1/T1R3 receptor [2]): 0.01 mM

SMILES: Nc1ncnc2c1ncn2[C@H]1C[C@H](OP(=O)(O)O)[C@@H](COP(=O)(O)O)O1 [2′-deoxyadenosine-3′, 5′-O-bisphosphate]
- Max resp. (ΔF/F) (cat T1R1/T1R3 receptor [3]): 0.8 ΔF/F
- Max. resp. % of IMP (cat T1R1/T1R3 receptor [3]): 76.4 % of IMP
- Threshold (cat T1R1/T1R3 receptor [3]): 0.005 mM
- EC50 (cat T1R1/T1R3 receptor [4]; test compound alone (in buffer), read-out: EC50- alone): 20 µM

SMILES: O=c1[nH]cnc2c1ncn2C1OC(COP(=O)(O)OP(=O)(O)O)C(O)C1O (stereo not shown) [Inosine 5′-disphosphate (IDP) sodium salt]
- EC50 (cat T1R1/T1R3 receptor [4]): 650 ± 70 µM

SMILES: O=C(NCCc1c[nH]c2ccccc12)c1cccnc1 [N-(2-(1H-indol-3-yl)ethyl)nicotinamide, N-(2-(1H-Indol-3-yl)ethyl)nicotinamide]
- EC50 (T1R1/T1R3 receptor [1]; [8]): 50 ± 10 µM
- EC50 (T1R1/T1R3 receptor [1]; [9]): 150 ± 30 µM
- Max resp % of IMP, +Alanine (20 mM) (T1R1/T1R3 receptor [2]): 166.4%
- Thres (mM), +Alanine (20 mM) (T1R1/T1R3 receptor [2]): 0.03 mM
- EC50 (T1R1/T1R3 receptor [2]; [10]): 0.04 mM
- EC50 (T1R1/T1R3 receptor [2]; [11]): 0.05 mM
- EC50 (T1R1/T1R3 receptor [2]; [8]): 0.05 ± 0.01 mM
- EC50 (T1R1/T1R3 receptor [2]; [12]): 0.04 ± 0.1 mM
- EC50 (T1R1/T1R3 receptor [2]; [9]): 0.15 ± 0.03 mM
- EC50 (T1R1/T1R3 receptor [2]; [13]): 0.15 mM
- Max resp % of Ala, +IMP (0.2 mM) (T1R1/T1R3 receptor [2]; in the presence of 0.2 mM IMP): 170.1%
- Thres (mM), +IMP (0.2 mM) (T1R1/T1R3 receptor [2]): 0.003 mM

SMILES: CCCC(CCC)NC(=O)c1ccc2c(c1)OCO2 [N-(heptan-4-yl)benzo[d][1,3]dioxole-5-carboxamide]
- Max resp ΔF/F +Alanine (T1R1/T1R3 receptor [5]; + Alanine, Table 17): 1.7725 and 1.2
- Max resp ΔF/F +IMP (T1R1/T1R3 receptor [5]; + IMP (0.2 mM), Table 17): 1.4725
- Max resp ΔF/F +Alanine (T1R1/T1R3 receptor [5]; +Alanine (20 mM), Table 18): 1.2 and 1.7725
- EC50 (T1R1/T1R3 receptor [5]; +Alanine (20 mM), Table 18, read-out: EC50 +Alanine): 420 µM and 1100 µM
- Max resp ΔF/F +IMP (T1R1/T1R3 receptor [5]; +IMP (0.2 mM), Table 18): 1.393 and 1.473
- EC50 (T1R1/T1R3 receptor [5]; EC50 + IMP, + IMP (0.2 mM), Table 17): 90 µM and 100 µM
- EC50 (T1R1/T1R3 receptor [5]; EC50 +Alanine + IMP, +Alanine (20 mM) + IMP (0.2 mM), Table 18): 30 µM and 100 µM
- EC50 (T1R1/T1R3 receptor [5]; EC50 +IMP, +IMP (0.2 mM), Table 18): 100 µM and 90 µM
- EC50 (T1R1/T1R3 receptor [5]; EC50 - with Ala (20 mM) and IMP (0.2 mM), with 20 mM alanine and 0.2 mM IMP): 30 ± 30 µM
- EC50 (T1R1/T1R3 receptor [5]; EC50 - with Ala (20 mM), with 20 mM alanine): 420 ± 60 µM
- EC50 (T1R1/T1R3 receptor [5]; EC50 - with IMP (0.2 mM), with 0.2 mM IMP): 90 ± 40 µM
- EC50 (T1R1/T1R3 receptor [5]; alone in buffer, read-out: EC50 - alone): 260 ± 90 µM
- EC50 (T1R1/T1R3 receptor [5]; compound alone in buffer, Table 17, read-out: EC50 + buffer (alone)): 700 µM and 260 µM
- EC50 (T1R1/T1R3 receptor [5]; compound alone in buffer, Table 18, read-out: EC50 +buffer (alone)): 260 µM and 700 µM
- EC50 (T1R1/T1R3 receptor [5]; read-out: EC50 + Alanine): 1100 µM and 420 µM
- agonist profile assessment (agonist activity) (T1R1/T1R3 receptor [6]): agonist
- PAM profile assessment (PAM activity) (T1R1/T1R3 receptor [7]): PAM activity
